Results from patent publication US4224199A, “Somatostatin analogs having a substituted tryptophyl residue in position eight” (priority 1978, dated 1980).

Tested on: rat anterior pituitary cells
Assay: in vitro inhibition of growth hormone release from dispersed rat anterior pituitary cells (radioimmunoassay)
Type: cell-based
Settings: rat anterior pituitary cells 4 days in culture, incubated 5 hours at 37° C., potency from ED50 relative to somatostatin
Description: Meyers et al., Biochem. Biophys. Res. Commun., 74, 630(1977). In this method, the tetradecapeptides of this invention are shown to inhibit the release of radioimmunoassayable growth hormone in vitro from enzymatically dispersed rat anterior pituitary cells prepared as described by F. Labrie et al., Sixth Karolinska Symp. on Res. Meth. in Reprod. Endocrinol. (W. Dozfalusy, Ed.), pp 301-328(1973). Following four days in culture, the cells are washed and incubated for five hours at 37° C. in Dulbecco-modified Eagle's medium in the presence or absence of increasing concentrations of each tetradecapeptide analog. Growth hormone levels are determined by double antibody radioimmunoassay, method described by C. A. Birge et al., Endocrinol., 81, 195-204(1967), for rat growth hormone using the NIAMDD Rat GH RIA kit. The dose required for a 50% inhibition of growth hormone release (ED50) is calculated for each analog by the method of D. Rodbard, Endocrinol., 94, 1427-1437(1974). The potency of the tetradecapeptide analogs of this invention relative to somatostatin is illustrated in table I.

| Compound | Growth Hormone Release-Inhibiting Activity, Relative to Somatostatin [%] |
| --- | --- |
| cyclic[3-14 disulfide] of L-alanyl-glycyl-L-cysteinyl-L-asparaginyl-L-lysyl-L-phenylalanyl-L-phenylalanyl-L-5-fluorotryptophyl-L-lysyl-L-threonyl-L-phenylalanyl-L-threonyl-L-seryl-L-cysteine [Example L-5-F-Trp] | 476 |
| C[C@H](N)C(=O)NCC(=O)N[C@H]1CSSC[C@@H](C(=O)O)NC(=O)[C@H](CO)NC(=O)[C@H]([C@@H](C)O)NC(=O)[C@H](Cc2ccccc2)NC(=O)[C@H]([C@@H](C)O)NC(=O)[C@H](CCCCN)NC(=O)[C@@H](Cc2c[nH]c3ccc(F)cc23)NC(=O)[C@H](Cc2ccccc2)NC(=O)[C@H](Cc2ccccc2)NC(=O)[C@H](CC(N)=O)NC(=O)[C@H](CCCCN)NC1=O [Example D-5-F-Trp, cyclic[3-14 disulfide] of L-alanyl-glycyl-L-cysteinyl-L-lysyl-L-asparaginyl-L-phenylalanyl-L-phenylalanyl-D-5-fluorotryptophyl-L-lysyl-L-threonyl-L-phenylalanyl-L-threonyl-L-seryl-L-cysteine] | 2499 |
